Drawing on the supplement of paper PMC10307832, this text covers relative viability for eight cell lines.

What all share (assay): relative viability (nuclei count vs DMSO), 5 days (fraction); higher = more cells survive
Compound in one test: CC(C)C[C@@H](C(=O)N[C@H](C(=O)OC1CCCC1)c1ccccc1)[C@H](O)C(=O)NO [Tosedostat]
In a few lines:
(§1)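 Following overnight incubation at 37 °C, lung cancer cell lines in 1536-well plates were pinned with five library-drug doses (not always all listed) in √10 steps on vehicle-anchored plates. The cells then spent 5 days without medium change before a combined fix, permeabilisation and Hoechst stain, 4× imaging and MetaXpress nuclear counts. Viability is the treated-to-vehicle ratio of nuclei, taken as the median across plates. Only plates with control CV below 25% and at least one doubling passed.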

Compound in test [1]: CC1=NN=C(O1)C2=NN=C(C=C2)N3CCC(CC3)OC4=C(C=CC(=C4)F)Cl
A digest of the protocol:
as §1

Compound in test [2]: CC1=NN=C(O1)C2=NN=C(C=C2)N3CCC(CC3)OC4=C(C=CC(=C4)F)Cl + Nc1nc2[nH]cc(CCc3ccc(C(=O)N[C@@H](CCC(=O)O)C(=O)O)cc3)c2c(=O)[nH]1 [Pemetrexed] (partner 0.2 µM)
A digest of the protocol: (§2)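 After 5 days of treatment, lung cancer cells in 1536-well plates were fixed and stained in a single step (final 0.05% Triton X-100, 1% formaldehyde, 1 ug/ml Hoechst) and their nuclei counted on 4× images. Treatment had been applied by pin tool the day after seeding as one drug alone or as a fixed anchor-drug dose with five library-drug doses (not always all listed) in √10 steps. Relative viability is the nuclei count of treated wells divided by that of vehicle wells, and values are medians of duplicate plates.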

Compound in the test “Tosedostat + Alpelisib”: CC(C)C[C@@H](C(=O)N[C@H](C(=O)OC1CCCC1)c1ccccc1)[C@H](O)C(=O)NO [Tosedostat] + Cc1nc(NC(=O)N2CCC[C@H]2C(N)=O)sc1-c1ccnc(C(C)(C)C(F)(F)F)c1 [Alpelisib] (partner 2 µM)
In a few lines: as §2

As for LU99A, the relative viability was determined as 1.04 with Tosedostat (0.02 µM); 1.11 in the test with Tosedostat (0.06325 µM); 0.99 with Tosedostat (0.2 µM); 0.857 with Tosedostat (0.6325 µM); 0.813 with Tosedostat (2 µM); 1.05 in test [1] (0.253 µM). In addition, the relative viability is 0.783 in test [1] (0.8 µM); 0.721 in test [1] (2.53 µM); 0.758 in test [1] (8 µM); 0.149 in test [2] (first compound 0.253 µM); 0.18 in test [2] (first compound 0.8 µM); 0.162 in test [2] (first compound 2.53 µM). The relative viability in test [2] (first compound 8 µM) was 0.164; in the test with Tosedostat + Alpelisib (first compound 0.02 µM), 0.633; in the test with Tosedostat + Alpelisib (first compound 0.06325 µM), 0.445; in the test with Tosedostat + Alpelisib (first compound 0.2 µM) it was 0.501; with Tosedostat + Alpelisib (first compound 0.6325 µM) it was 0.486; with Tosedostat + Alpelisib (first compound 2 µM) it was 0.477.

Regarding LXF-289, the relative viability in the test with Tosedostat (0.02 µM) was found to be 1.08; with Tosedostat (0.06325 µM), 0.987; with Tosedostat (0.2 µM) it was 0.992; with Tosedostat (0.6325 µM), 0.993; in the test with Tosedostat (2 µM), 1.05; in test [1] (0.253 µM), 0.712. Further, the relative viability was 0.616 in test [1] (0.8 µM); 0.737 in test [1] (2.53 µM); 0.653 in test [1] (8 µM); 0.768 in test [2] (first compound 0.253 µM); 0.594 in test [2] (first compound 0.8 µM); 0.767 in test [2] (first compound 2.53 µM). Moreover, the relative viability in test [2] (first compound 8 µM) came out at 0.726; with Tosedostat + Alpelisib (first compound 0.02 µM) it was 1.03; with Tosedostat + Alpelisib (first compound 0.06325 µM), 1.05; with Tosedostat + Alpelisib (first compound 0.2 µM) it was 1.03; in the test with Tosedostat + Alpelisib (first compound 0.6325 µM), 1.07; with Tosedostat + Alpelisib (first compound 2 µM) it was 1.1.

NCI-H23: the relative viability was 1.14 in the test with Tosedostat (0.02 µM); 0.907 with Tosedostat (0.06325 µM); 0.899 with Tosedostat (0.2 µM); 0.744 in the test with Tosedostat (0.6325 µM); 0.541 with Tosedostat (2 µM); 0.919 in test [1] (0.253 µM). Also, the relative viability in test [1] (0.8 µM) is 0.532; in test [1] (2.53 µM), 0.835; in test [1] (8 µM), 0.815; in test [2] (first compound 0.253 µM), 0.669; in test [2] (first compound 0.8 µM) it was 0.543; in test [2] (first compound 2.53 µM), 0.698. For the same cell line, the relative viability in test [2] (first compound 8 µM) was 0.622; with Tosedostat + Alpelisib (first compound 0.02 µM), 0.615; in the test with Tosedostat + Alpelisib (first compound 0.06325 µM), 0.745; with Tosedostat + Alpelisib (first compound 0.2 µM) it was 0.536; in the test with Tosedostat + Alpelisib (first compound 0.6325 µM), 0.513; with Tosedostat + Alpelisib (first compound 2 µM), 0.538.

For NCI-H322M, the relative viability with Tosedostat (0.02 µM) was determined as 0.898; in the test with Tosedostat (0.06325 µM) it was 0.964; with Tosedostat (0.2 µM), 0.877; with Tosedostat (0.6325 µM), 0.762; with Tosedostat (2 µM), 0.834; in test [1] (0.253 µM) it was 0.929. In addition, the relative viability in test [1] (0.8 µM) amounted to 0.881; in test [1] (2.53 µM), 1.02; in test [1] (8 µM), 0.819; in test [2] (first compound 0.253 µM), 0.629; in test [2] (first compound 0.8 µM), 0.381; in test [2] (first compound 2.53 µM), 0.578. Further, the relative viability in test [2] (first compound 8 µM) turned out to be 0.592; with Tosedostat + Alpelisib (first compound 0.02 µM), 0.726; in the test with Tosedostat + Alpelisib (first compound 0.06325 µM), 0.902; with Tosedostat + Alpelisib (first compound 0.2 µM), 0.537; with Tosedostat + Alpelisib (first compound 0.6325 µM), 0.755; with Tosedostat + Alpelisib (first compound 2 µM), 0.53.

Take NCI-H358: the relative viability with Tosedostat (0.02 µM) was found to be 1.11; with Tosedostat (0.06325 µM), 0.866; with Tosedostat (0.2 µM), 0.782; in the test with Tosedostat (0.6325 µM), 0.452; in the test with Tosedostat (2 µM) it was 0.425; in test [1] (0.253 µM) it was 0.628. In addition, the relative viability in test [1] (0.8 µM) was found to be 0.563; in test [1] (2.53 µM), 0.589; in test [1] (8 µM), 0.49; in test [2] (first compound 0.253 µM), 0.148; in test [2] (first compound 0.8 µM), 0.167; in test [2] (first compound 2.53 µM), 0.139. Also, the relative viability in test [2] (first compound 8 µM) amounted to 0.162; with Tosedostat + Alpelisib (first compound 0.02 µM), 0.881; in the test with Tosedostat + Alpelisib (first compound 0.06325 µM), 0.824; with Tosedostat + Alpelisib (first compound 0.2 µM) it was 0.688; with Tosedostat + Alpelisib (first compound 0.6325 µM) it was 0.538; with Tosedostat + Alpelisib (first compound 2 µM), 0.442.

NCI-H441: the relative viability with Tosedostat (0.02 µM) worked out at 1.12; with Tosedostat (0.06325 µM), 0.92; with Tosedostat (0.2 µM), 0.749; with Tosedostat (0.6325 µM), 0.69; with Tosedostat (2 µM), 0.731; in test [1] (0.253 µM), 0.672. Also, the relative viability in test [1] (0.8 µM) came to 0.388; in test [1] (2.53 µM), 0.595; in test [1] (8 µM) it was 0.519; in test [2] (first compound 0.253 µM), 0.295; in test [2] (first compound 0.8 µM) it was 0.265; in test [2] (first compound 2.53 µM), 0.223. Further, the relative viability in test [2] (first compound 8 µM) amounted to 0.258; in the test with Tosedostat + Alpelisib (first compound 0.02 µM) it was 0.749; with Tosedostat + Alpelisib (first compound 0.06325 µM), 0.582; in the test with Tosedostat + Alpelisib (first compound 0.2 µM) it was 0.597; in the test with Tosedostat + Alpelisib (first compound 0.6325 µM), 0.501; with Tosedostat + Alpelisib (first compound 2 µM), 0.534.

Consider NCI-H460, for which the relative viability with Tosedostat (0.02 µM) is 1.02; with Tosedostat (0.06325 µM), 0.994; with Tosedostat (0.2 µM), 0.99; with Tosedostat (0.6325 µM) it was 0.974; with Tosedostat (2 µM), 0.989; in test [1] (0.253 µM), 0.273. Further, the relative viability in test [1] (0.8 µM) is 0.306; in test [1] (2.53 µM), 0.282; in test [1] (8 µM) it was 0.284; in test [2] (first compound 0.253 µM), 0.0764; in test [2] (first compound 0.8 µM) it was 0.0663; in test [2] (first compound 2.53 µM), 0.0645. Besides, the relative viability in test [2] (first compound 8 µM) was determined as 0.071; with Tosedostat + Alpelisib (first compound 0.02 µM) it was 0.535; with Tosedostat + Alpelisib (first compound 0.06325 µM) it was 0.472; with Tosedostat + Alpelisib (first compound 0.2 µM) it was 0.619; with Tosedostat + Alpelisib (first compound 0.6325 µM) it was 0.689; with Tosedostat + Alpelisib (first compound 2 µM), 0.796.

For NCI-H520, the relative viability was found to be 1.02 in the test with Tosedostat (0.02 µM); 0.977 with Tosedostat (0.06325 µM); 0.937 in the test with Tosedostat (0.2 µM); 1.15 in the test with Tosedostat (0.6325 µM); 1.14 with Tosedostat (2 µM); 0.91 in test [1] (0.253 µM). Moreover, the relative viability came to 0.813 in test [1] (0.8 µM); 1.16 in test [1] (2.53 µM); 0.968 in test [1] (8 µM); 0.644 in test [2] (first compound 0.253 µM); 0.543 in test [2] (first compound 0.8 µM); 0.642 in test [2] (first compound 2.53 µM). Further, the relative viability in test [2] (first compound 8 µM) came to 0.471; with Tosedostat + Alpelisib (first compound 0.02 µM) it was 0.805; with Tosedostat + Alpelisib (first compound 0.06325 µM), 0.807; with Tosedostat + Alpelisib (first compound 0.2 µM) it was 0.929; in the test with Tosedostat + Alpelisib (first compound 0.6325 µM), 1.12; in the test with Tosedostat + Alpelisib (first compound 2 µM), 0.946.
